Experimental data as given in ChEMBL document CHEMBL1147989, “Synthesis and structure-activity relationships of 4-hydroxy-4-phenylpiperidines as nociceptin receptor ligands: Part 2” (Bioorg Med Chem Lett, 2007).
Blank lines part the entries; values can stand above or below the molecule they belong to.

Columns and labels:
[1] = molecular target: T1, Nociceptin receptor (Homo sapiens, UniProt P41146); test: Displacement of [125I][Tyr14]nociceptin FQ from human NOP receptor expressed in CHO cell membrane; type: cell membranes
T1 sequence (P41146 whole entry): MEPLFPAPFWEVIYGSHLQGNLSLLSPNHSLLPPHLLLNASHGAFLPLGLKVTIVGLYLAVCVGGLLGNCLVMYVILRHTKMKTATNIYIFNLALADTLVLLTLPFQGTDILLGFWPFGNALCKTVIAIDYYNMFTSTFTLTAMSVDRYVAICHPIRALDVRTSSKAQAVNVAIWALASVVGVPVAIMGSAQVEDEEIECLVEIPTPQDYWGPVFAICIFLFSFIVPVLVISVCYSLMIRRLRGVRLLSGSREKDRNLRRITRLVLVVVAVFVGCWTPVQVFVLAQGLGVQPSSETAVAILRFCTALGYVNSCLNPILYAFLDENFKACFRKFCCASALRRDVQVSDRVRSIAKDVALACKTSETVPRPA

[2] = molecular target: Mu-type opioid receptor (Homo sapiens, UniProt P35372); test: Displacement of [3H]diprenorphine from human MOP receptor expressed in CHO cell membrane; type: cell membranes
Mu-type opioid receptor, sequence (P35372 whole entry): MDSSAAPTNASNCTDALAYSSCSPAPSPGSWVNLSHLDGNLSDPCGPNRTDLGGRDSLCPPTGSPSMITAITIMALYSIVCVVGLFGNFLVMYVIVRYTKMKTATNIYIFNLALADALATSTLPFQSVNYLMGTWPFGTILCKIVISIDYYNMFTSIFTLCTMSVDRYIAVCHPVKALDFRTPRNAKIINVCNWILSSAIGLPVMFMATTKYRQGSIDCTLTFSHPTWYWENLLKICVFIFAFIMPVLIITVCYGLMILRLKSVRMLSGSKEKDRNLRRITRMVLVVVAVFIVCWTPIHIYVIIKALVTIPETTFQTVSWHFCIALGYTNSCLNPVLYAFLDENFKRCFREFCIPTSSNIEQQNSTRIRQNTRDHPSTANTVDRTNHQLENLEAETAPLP

[3] = molecular target: Kappa-type opioid receptor (Homo sapiens, UniProt P41145); test: Displacement of [3H]diprenorphine from human KOP receptor expressed in CHO cell membrane; type: cell membranes
Kappa-type opioid receptor, sequence (P41145 whole entry): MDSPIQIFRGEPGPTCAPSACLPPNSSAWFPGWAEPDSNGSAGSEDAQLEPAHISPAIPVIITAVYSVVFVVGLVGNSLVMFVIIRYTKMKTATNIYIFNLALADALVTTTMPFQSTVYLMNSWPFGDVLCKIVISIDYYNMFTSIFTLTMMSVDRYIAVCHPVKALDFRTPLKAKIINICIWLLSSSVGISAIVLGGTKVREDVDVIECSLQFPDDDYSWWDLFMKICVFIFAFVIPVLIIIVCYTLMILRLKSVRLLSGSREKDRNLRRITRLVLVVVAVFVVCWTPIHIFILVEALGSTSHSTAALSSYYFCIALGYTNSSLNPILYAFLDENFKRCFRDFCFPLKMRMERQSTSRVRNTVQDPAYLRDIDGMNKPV

[4] = molecular target: Delta-type opioid receptor (Homo sapiens, UniProt P41143); test: Displacement of [3H]diprenorphine from human DOP receptor expressed in CHO cell membrane; type: cell membranes
Delta-type opioid receptor, sequence (P41143 whole entry): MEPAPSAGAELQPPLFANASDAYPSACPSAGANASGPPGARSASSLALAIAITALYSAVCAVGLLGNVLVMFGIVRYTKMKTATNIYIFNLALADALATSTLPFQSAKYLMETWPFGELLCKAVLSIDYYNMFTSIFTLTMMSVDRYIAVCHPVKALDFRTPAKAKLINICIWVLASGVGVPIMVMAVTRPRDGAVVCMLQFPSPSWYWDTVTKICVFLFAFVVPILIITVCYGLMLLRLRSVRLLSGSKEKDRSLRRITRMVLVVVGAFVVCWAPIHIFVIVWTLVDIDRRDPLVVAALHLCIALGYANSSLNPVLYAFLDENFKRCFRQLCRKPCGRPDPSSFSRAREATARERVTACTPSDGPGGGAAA

[5] = molecular target: T1, Nociceptin receptor; test: Agonist activity at human NOP receptor transfected in CHO cells assessed as stimulation of [35S]GTP-gamma-S at 100 uM; type: functional, cell-based
[6] = molecular target: T1, Nociceptin receptor; test: Agonist activity at human NOP receptor transfected in CHO cells assessed as stimulation of [35S]GTPgammaS at 1 uM; type: functional, cell-based
[7] = molecular target: T1, Nociceptin receptor; test: Agonist activity at human NOP receptor transfected in CHO cells assessed as stimulation of [35S]GTP-gamma-S at 0.1 uM; type: functional, cell-based

Ki [2]: 2990 nM | Ki [3]: 3670 nM | Ki [1]: 180 nM | Ki [4]: 9.59 µM
SMILES: COc1cccc(C2(O)CCN(C(c3ccccc3)c3ccccc3)CC2)c1

Ki [2]: 1730 nM | Ki [3]: 3410 nM | Ki [1]: 48 nM | Ki [4]: 8.45 µM
SMILES: OC1(c2cccs2)CCN(C(c2ccccc2)c2ccccc2)CC1

Ki [2]: 936 nM | Ki [3]: 1700 nM | Ki [1]: 24 nM | Ki [4]: 6.36 µM
SMILES: OC1(c2ccc(Cl)cc2)CCN(C(c2ccccc2)c2ccccc2)CC1

Ki [2]: 3360 nM | Ki [3]: 1800 nM | Ki [1]: 1670 nM | Ki [4]: 13.8 µM
SMILES: OC1(CCCc2ccccc2)CCN(C(c2ccccc2)c2ccccc2)CC1

Ki [2]: 11100 nM | Ki [3]: 10300 nM | Ki [1]: 588 nM | Ki [4]: 19.2 µM
SMILES: COc1ccc(C2(O)CCN(C(c3ccccc3)c3ccccc3)CC2)cc1

Ki [2]: 74 nM | Ki [3]: 818 nM | Ki [1]: 11 nM | Activity [5]: 69% | Ki [4]: 1.67 µM
SMILES: Cc1ccccc1C1(O)CCN(C(c2ccccc2)c2ccccc2)CC1

Ki [2]: 11500 nM | Ki [3]: 13200 nM | Ki [1]: 313 nM | Ki [4]: 45.6 µM
SMILES: OC1(c2ccccn2)CCN(C(c2ccccc2)c2ccccc2)CC1

Ki [2]: 125 nM | Ki ([2]; cho): 125 nM | Ki [3]: 1660 nM | Ki ([3]; cho): 1660 nM | Ki [1]: 1.6 nM | Ki ([1]; cho): 1.6 nM | Ki [4]: 13.9 µM | Ki ([4]; cho): 13.9 µM
SMILES: NCc1ccccc1C1(O)CCN(C(c2ccccc2)c2ccccc2)CC1

Ki [2]: 28 nM | Ki [3]: 725 nM | Activity [7]: 119% | Ki [1]: 0.7 nM | Ki [4]: 2.87 µM
SMILES: Cc1ccccc1C(c1ccccc1)N1CCC(O)(c2ccccc2CN)CC1 (stereo not given)

Ki [2]: 11400 nM | Ki [3]: 19700 nM | Ki [1]: 1750 nM | Ki [4]: 33.3 µM
SMILES: CCCc1ccc(C2(O)CCN(C(c3ccccc3)c3ccccc3)CC2)cc1

Ki [2]: 616 nM | Activity [6]: 104% | Ki [3]: 278 nM | Ki [1]: 1.8 nM | Ki [4]: 3.2 µM
SMILES: NCc1ccccc1C1(O)CCN(C(c2ccccc2Br)c2ccccc2Br)CC1

Ki [2]: 983 nM | Ki [3]: 4160 nM | Ki [1]: 85 nM | Ki [4]: 4.39 µM
SMILES: COc1ccccc1C1(O)CCN(C(c2ccccc2)c2ccccc2)CC1

Ki [2]: 186 nM | Ki [3]: 2770 nM | Ki [1]: 16 nM | Ki [4]: 4.36 µM
SMILES: OCc1ccccc1C1(O)CCN(C(c2ccccc2)c2ccccc2)CC1

Second part, the molecule before the results:

SMILES: OC1(c2nccs2)CCN(C(c2ccccc2)c2ccccc2)CC1
Ki [1]: 1270 nM

SMILES: CNC(=O)NCc1ccccc1C1(O)CCN(C(c2ccccc2Cl)c2ccccc2Cl)CC1
Ki [2]: 198 nM | Ki [3]: 215 nM | Ki [1]: 2 nM | Ki [4]: 1.99 µM

SMILES: CC(C)S(=O)(=O)N1CCN(Cc2ccccc2C2(O)CCN(C(c3ccccc3Cl)c3ccccc3Cl)CC2)CC1
Ki [2]: 353 nM | Ki [3]: 186 nM | Ki [1]: 0.6 nM | Ki [4]: 3.16 µM

SMILES: CCCCCC(c1ccccc1)N1CCC(O)(c2ccccc2CN)CC1 (stereo not given)
Ki [2]: 2 nM | Ki [3]: 30 nM | Ki [1]: 0.5 nM | Ki [4]: 0.606 µM

SMILES: OC1(c2ccc(Br)cc2)CCN(C(c2ccccc2)c2ccccc2)CC1
Ki [2]: 1060 nM | Ki [3]: 2610 nM | Ki [1]: 51 nM | Ki [4]: 15.2 µM

SMILES: CC(C)(C)C1(O)CCN(C(c2ccccc2)c2ccccc2)CC1
Ki [2]: 3600 nM | Ki [3]: 1070 nM | Ki [1]: 62 nM | Ki [4]: 56.6 µM

SMILES: OC1(c2ccco2)CCN(C(c2ccccc2)c2ccccc2)CC1
Ki [2]: 4550 nM | Ki [3]: 9640 nM | Ki [1]: 136 nM | Ki [4]: 14.5 µM

SMILES: CC(C)C1(O)CCN(C(c2ccccc2)c2ccccc2)CC1
Ki [2]: 13200 nM | Ki [3]: 7390 nM | Ki [1]: 433 nM | Ki [4]: 52.8 µM

SMILES: OC1(c2ccccc2CN2CCNCC2)CCN(C(c2ccccc2Cl)c2ccccc2Cl)CC1
Ki [2]: 145 nM | Ki [3]: 261 nM | Ki [1]: 1.9 nM | Ki [4]: 1.17 µM

SMILES: NCc1ccccc1C1(O)CCN(C(c2ccccc2Cl)c2ccccc2Cl)CC1
Ki [2]: 249 nM | Activity [6]: 102% | Ki [3]: 747 nM | Ki [1]: 0.5 nM | Ki [4]: 3 µM

SMILES: Cc1ccccc1C(c1ccccc1C)N1CCC(O)(c2ccccc2CN)CC1
Ki [2]: 190 nM | Activity [6]: 94% | Ki [3]: 450 nM | Ki [1]: 0.5 nM | Ki [4]: 8.44 µM

SMILES: CCCCC(c1ccccc1)N1CCC(O)(c2ccccc2CN)CC1 (stereo not given)
Ki [2]: 2 nM | Ki [3]: 15 nM | Ki [1]: 0.4 nM | Ki [4]: 1.21 µM

SMILES: CCCCCCC1(O)CCN(C(c2ccccc2)c2ccccc2)CC1
Ki [2]: 8900 nM | Ki [3]: 9220 nM | Ki [1]: 1150 nM | Ki [4]: 17.9 µM

SMILES: CCCCC1(O)CCN(C(c2ccccc2)c2ccccc2)CC1
Ki [2]: 272 nM | Ki [3]: 4560 nM | Ki [1]: 23 nM | Ki [4]: 18.8 µM

SMILES: CN(C)c1ccc(C2(O)CCN(C(c3ccccc3)c3ccccc3)CC2)cc1
Ki [1]: 4540 nM
